Assay results from patent US11312690B2, “Compounds, compositions, methods for treating diseases, and methods for preparing compounds” (UNIVERSITY OF LOUISVILLE RESEARCH FOUNDATION, INC., priority 2015, dated 2022).

biological target: T1, interaction of K-Ras with RGL2 (Homo sapiens, UniProt O15211); test: Ras/RalGEF binding, immunoprecipitation and immunoblot from co-transfected HEK-293 cells; conditions: 10 μM, HA K-Ras 12v and GFP-RGL2, IP/IB, FIG. 3B
T1 construct: expressed in transfected cells; host or cells: HEK-293
T1 sequence (O15211 1-777): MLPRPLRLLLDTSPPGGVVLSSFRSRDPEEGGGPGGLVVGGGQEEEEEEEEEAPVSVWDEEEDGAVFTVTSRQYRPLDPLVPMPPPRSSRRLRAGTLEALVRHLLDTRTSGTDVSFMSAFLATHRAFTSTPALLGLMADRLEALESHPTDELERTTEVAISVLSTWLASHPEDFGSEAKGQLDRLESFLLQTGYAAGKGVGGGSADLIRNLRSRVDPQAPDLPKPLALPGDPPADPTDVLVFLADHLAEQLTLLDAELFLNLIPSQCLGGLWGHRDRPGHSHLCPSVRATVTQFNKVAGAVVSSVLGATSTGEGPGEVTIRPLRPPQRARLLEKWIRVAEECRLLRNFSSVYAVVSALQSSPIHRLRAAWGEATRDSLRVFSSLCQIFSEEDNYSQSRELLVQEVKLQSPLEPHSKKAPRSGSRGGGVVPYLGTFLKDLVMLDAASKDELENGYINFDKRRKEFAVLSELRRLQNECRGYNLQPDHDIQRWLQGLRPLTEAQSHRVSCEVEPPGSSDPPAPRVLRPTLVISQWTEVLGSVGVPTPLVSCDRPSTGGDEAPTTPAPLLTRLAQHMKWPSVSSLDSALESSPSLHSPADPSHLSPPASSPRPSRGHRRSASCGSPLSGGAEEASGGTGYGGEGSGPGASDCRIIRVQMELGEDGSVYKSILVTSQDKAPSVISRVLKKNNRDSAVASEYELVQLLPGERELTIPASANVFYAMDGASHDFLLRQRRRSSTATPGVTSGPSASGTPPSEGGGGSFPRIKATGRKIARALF

Compound | inhibition of RGL2 (Ras/RGL2 interaction)
COc1cccc(CNc2nc(CN(C)Cc3cccc(OC)c3)nc3ccccc23)c1 [Compound I-2, N-(3-Methoxybenzyl)-2-(((3-methoxybenzyl)(methyl)amino)methyl)quinazolin-4-amine] | found to inhibit RGL2

test system: MiaPaCa-2; test: Soft agar colony formation; format: cell-based, human; parameters: Colonies in agar: unit not given here; conditions: 10 μM; Table 2 experiment, DMSO control 182 ± 7 colonies
Method: FIG. 1. Effects of some compounds of Formula (I) on RalGEF inhibitor on soft agar growth and normal growth in 2D of pancreatic carcinoma cell lines. In FIGS. 1A and 1B, Panc-1 (ATCC® CRL-1469™) and MiaPaCa-2 (ATCC® CRL-1420™) mutant Ras containing pancreatic tumor cell lines were plated in soft agar in the presence of 10 μM or 0.9 μM of compound I-1 and scored for the formation of colonies. In FIGS. 1C and 1D, compound I-1 was then tested for the ability to inhibit cell growth on the same cell lines under normal 2D growth conditions on plastic. “0” is the carrier. Cells were seeded at the same density and scored after two weeks in culture.
Human pancreatic tumor cell lines MiaPaca-2 and Panc-1 contain activated K-Ras and were used in the initial screen to identify compound I-1. Soft agar colony formation remains an established in vitro assay to predict tumorigenicity and was used to predict tumorigenicity for compound I-1.
Several other compounds were tested against the Mia Paca-2 cell line using the soft agar colony formation in vitro assay in two experiments. For each table, DMSO was used as a control and, as such, within each table, the DMSO colonies are the measure against which each measurement in the corresponding table is compared.

Compound | Colonies in agar
COc1cccc(CNc2nc(CN(C)Cc3cccc(OC)c3)nc3c2c(C)c(C)[s+]3[O-])c1 (stereo not shown) [Compound I-33] | 186 ± 4
COc1cccc(CNc2nc(CN(C)Cc3cccc(OC)c3)nc3scc(C)c23)c1 [Compound I-30] | 14 ± 2
COc1cccc(CN(C)Cc2nc(NCc3cccc(Cl)c3)c3c(C)c(C)sc3n2)c1 [Compound I-27] | 51 ± 9
COc1cccc(CNc2nc(CN(C)Cc3cccc(C)c3)nc3sc(C)c(C)c23)c1 [Compound I-29] | 0 ± 0
CCc1cc2c(NCc3cccc(OC)c3)nc(CN(C)Cc3cccc(OC)c3)nc2s1 [Compound I-31] | 14 ± 1
COc1cccc(CN(C)Cc2nc(NCc3cccc(F)c3)c3c(C)c(C)sc3n2)c1 [Compound I-28] | 54 ± 5
COc1cccc(CNc2nc(CN(C)Cc3cccc(OC)c3)nc3sccc23)c1 [Compound I-32] | 36 ± 1
COc1cccc(CN(C)Cc2nc(NC(C)c3ccccc3)c3c(C)c(C)sc3n2)c1 (stereo not shown) [Compound I-26] | 0 ± 0

same assay, conditions: 10 μM; Table 3 experiment, DMSO control 1686 ± 114 colonies

Compound | Colonies in agar
COc1cccc(CN(C)Cc2nc(NCc3ccccc3)c3c(C)c(C)sc3n2)c1 [Compound I-46] | 320 ± 22
COc1cccc(CNc2nc(CN(C)Cc3cccc(OC)c3)nc3sc4c(c23)CCC4)c1 [Compound I-45] | 361 ± 49
COc1cccc(CN(C)Cc2nc(NCc3ccccc3OC)c3c(C)c(C)sc3n2)c1 [Compound I-43] | 272 ± 40
COc1cccc(CNc2nc(CN(C)Cc3ccccc3)nc3sc(C)c(C)c23)c1 [Compound I-54] | 410 ± 31
